Data from PubChem BioAssay (NCI).
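Results reflect a 48-hour exposure of cells in 96-well plates to compound at five concentrations. GI50 is the concentration that inhibits growth by half. TGI: concentration producing complete growth inhibition.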

Tests used:
Experiment in all cases: NCI-60 cell line screen, 48 h
786-0 renal = tested on: 786-0 renal
A498 renal = tested on: A498 renal
A549 NSCLC = tested on: A549 NSCLC
ACHN renal = tested on: ACHN renal
BT-549 breast = tested on: BT-549 breast
CAKI-1 renal = tested on: CAKI-1 renal
CCRF-CEM leukemia = tested on: CCRF-CEM leukemia
COLO 205 colon = tested on: COLO 205 colon
DU-145 prostate = tested on: DU-145 prostate
EKVX NSCLC = tested on: EKVX NSCLC
HCC-2998 colon = tested on: HCC-2998 colon
HCT-116 colon = tested on: HCT-116 colon
HCT-15 colon = tested on: HCT-15 colon
HL-60(TB) leukemia = tested on: HL-60(TB) leukemia
HOP-62 NSCLC = tested on: HOP-62 NSCLC
HOP-92 NSCLC = tested on: HOP-92 NSCLC
HS 578T breast = tested on: HS 578T breast
HT29 colon = tested on: HT29 colon
IGROV1 ovarian = tested on: IGROV1 ovarian
K-562 leukemia = tested on: K-562 leukemia
KM12 colon = tested on: KM12 colon
LOX IMVI melanoma = tested on: LOX IMVI melanoma
M14 melanoma = tested on: M14 melanoma
MALME-3M melanoma = tested on: MALME-3M melanoma
MCF7 breast = tested on: MCF7 breast
MDA-MB-231 breast = tested on: MDA-MB-231 breast
MDA-MB-435 = tested on: MDA-MB-435
MOLT-4 leukemia = tested on: MOLT-4 leukemia
NCI-H226 lung = tested on: NCI-H226 lung
NCI-H23 lung = tested on: NCI-H23 lung
NCI-H460 lung = tested on: NCI-H460 lung
NCI-H522 lung = tested on: NCI-H522 lung
NCI/ADR-RES ovarian = tested on: NCI/ADR-RES ovarian
OVCAR-3 ovarian = tested on: OVCAR-3 ovarian
OVCAR-4 ovarian = tested on: OVCAR-4 ovarian
OVCAR-5 ovarian = tested on: OVCAR-5 ovarian
OVCAR-8 ovarian = tested on: OVCAR-8 ovarian
PC-3 prostate = tested on: PC-3 prostate
RPMI-8226 leukemia = tested on: RPMI-8226 leukemia
RXF 393 renal = tested on: RXF 393 renal
SF-268 CNS = tested on: SF-268 CNS
SF-295 CNS = tested on: SF-295 CNS
SF-539 CNS = tested on: SF-539 CNS
SK-MEL-2 melanoma = tested on: SK-MEL-2 melanoma
SK-MEL-28 melanoma = tested on: SK-MEL-28 melanoma
SK-MEL-5 melanoma = tested on: SK-MEL-5 melanoma
SK-OV-3 ovarian = tested on: SK-OV-3 ovarian
SN12C renal = tested on: SN12C renal
SNB-19 CNS = tested on: SNB-19 CNS
SNB-75 CNS = tested on: SNB-75 CNS
SW-620 colon = tested on: SW-620 colon
T-47D breast = tested on: T-47D breast
TK-10 renal = tested on: TK-10 renal
U251 CNS = tested on: U251 CNS
UACC-257 melanoma = tested on: UACC-257 melanoma
UACC-62 melanoma = tested on: UACC-62 melanoma
UO-31 renal = tested on: UO-31 renal

SMILES: O=C1c2cc(Cl)ccc2-c2c1c1ccc([N+](=O)[O-])cc1c(=O)n2CCCBr
- GI50 (786-0 renal): 2.62 µM
- TGI (786-0 renal): 9.31 µM
- GI50 (A498 renal): 24.2 µM
- TGI (A498 renal): > 100 µM
- GI50 (A549 NSCLC): 5.85 µM
- TGI (A549 NSCLC): > 100 µM
- GI50 (ACHN renal): 2.42 µM
- TGI (ACHN renal): 7.25 µM
- GI50 (BT-549 breast): 34.2 µM
- TGI (BT-549 breast): > 100 µM
- GI50 (CAKI-1 renal): 1.72 µM
- TGI (CAKI-1 renal): 19.3 µM
- GI50 (CCRF-CEM leukemia): 0.625 µM
- TGI (CCRF-CEM leukemia): > 100 µM
- GI50 (COLO 205 colon): 3.37 µM
- TGI (COLO 205 colon): > 100 µM
- GI50 (DU-145 prostate): 4 µM
- TGI (DU-145 prostate): > 100 µM
- GI50 (EKVX NSCLC): > 100 µM
- TGI (EKVX NSCLC): > 100 µM
- GI50 (HCC-2998 colon): 42.6 µM
- TGI (HCC-2998 colon): > 100 µM
- GI50 (HCT-116 colon): 3.48 µM
- TGI (HCT-116 colon): > 100 µM
- GI50 (HCT-15 colon): 31.2 µM
- TGI (HCT-15 colon): > 100 µM
- GI50 (HL-60(TB) leukemia): 1.26 µM
- TGI (HL-60(TB) leukemia): 5.71 µM
- GI50 (HOP-62 NSCLC): 2.46 µM
- TGI (HOP-62 NSCLC): 23 µM
- GI50 (HOP-92 NSCLC): 0.539 µM
- TGI (HOP-92 NSCLC): 8.98 µM
- GI50 (HS 578T breast): > 100 µM
- TGI (HS 578T breast): > 100 µM
- GI50 (HT29 colon): 12.5 µM
- TGI (HT29 colon): > 100 µM
- GI50 (IGROV1 ovarian): 5.77 µM
- TGI (IGROV1 ovarian): 90.8 µM
- GI50 (K-562 leukemia): 4.46 µM
- TGI (K-562 leukemia): > 100 µM
- GI50 (KM12 colon): 20.8 µM
- TGI (KM12 colon): > 100 µM
- GI50 (LOX IMVI melanoma): 2.37 µM
- TGI (LOX IMVI melanoma): 24 µM
- GI50 (M14 melanoma): 3.91 µM
- TGI (M14 melanoma): 64.2 µM
- GI50 (MALME-3M melanoma): 9.32 µM
- TGI (MALME-3M melanoma): 82 µM
- GI50 (MCF7 breast): 4.61 µM
- TGI (MCF7 breast): > 100 µM
- GI50 (MDA-MB-231 breast): > 100 µM
- TGI (MDA-MB-231 breast): > 100 µM
- GI50 (MDA-MB-435): 14.9 µM
- TGI (MDA-MB-435): > 100 µM
- GI50 (MOLT-4 leukemia): 1.84 µM
- TGI (MOLT-4 leukemia): 8.04 µM
- GI50 (NCI-H226 lung): 11.5 µM
- TGI (NCI-H226 lung): > 100 µM
- GI50 (NCI-H23 lung): 8.27 µM
- TGI (NCI-H23 lung): > 100 µM
- GI50 (NCI-H460 lung): 0.931 µM
- TGI (NCI-H460 lung): > 100 µM
- GI50 (NCI-H522 lung): 5.02 µM
- TGI (NCI-H522 lung): 43.4 µM
- GI50 (NCI/ADR-RES ovarian): 5.01 µM
- TGI (NCI/ADR-RES ovarian): > 100 µM
- GI50 (OVCAR-3 ovarian): 36.6 µM
- TGI (OVCAR-3 ovarian): > 100 µM
- GI50 (OVCAR-4 ovarian): 78.2 µM
- TGI (OVCAR-4 ovarian): > 100 µM
- GI50 (OVCAR-5 ovarian): > 100 µM
- TGI (OVCAR-5 ovarian): > 100 µM
- GI50 (OVCAR-8 ovarian): 8.35 µM
- TGI (OVCAR-8 ovarian): > 100 µM
- GI50 (PC-3 prostate): 19.2 µM
- TGI (PC-3 prostate): > 100 µM
- GI50 (RPMI-8226 leukemia): 3.66 µM
- TGI (RPMI-8226 leukemia): 96 µM
- GI50 (RXF 393 renal): 17.6 µM
- TGI (RXF 393 renal): > 100 µM
- GI50 (SF-268 CNS): 1.65 µM
- TGI (SF-268 CNS): > 100 µM
- GI50 (SF-295 CNS): 2.63 µM
- TGI (SF-295 CNS): > 100 µM
- GI50 (SF-539 CNS): 3.94 µM
- TGI (SF-539 CNS): > 100 µM
- GI50 (SK-MEL-2 melanoma): 82.6 µM
- TGI (SK-MEL-2 melanoma): > 100 µM
- GI50 (SK-MEL-28 melanoma): 33.5 µM
- TGI (SK-MEL-28 melanoma): > 100 µM
- GI50 (SK-MEL-5 melanoma): 3.21 µM
- TGI (SK-MEL-5 melanoma): 24.3 µM
- GI50 (SK-OV-3 ovarian): 7.79 µM
- TGI (SK-OV-3 ovarian): > 100 µM
- GI50 (SN12C renal): 2.5 µM
- TGI (SN12C renal): 8.89 µM
- GI50 (SNB-19 CNS): 3.74 µM
- TGI (SNB-19 CNS): > 100 µM
- GI50 (SNB-75 CNS): 5.96 µM
- TGI (SNB-75 CNS): 64.2 µM
- GI50 (SW-620 colon): 3.78 µM
- TGI (SW-620 colon): > 100 µM
- GI50 (T-47D breast): 3.23 µM
- TGI (T-47D breast): 33.8 µM
- GI50 (TK-10 renal): 61.9 µM
- TGI (TK-10 renal): > 100 µM
- GI50 (U251 CNS): 3.07 µM
- TGI (U251 CNS): > 100 µM
- GI50 (UACC-257 melanoma): 41.4 µM
- TGI (UACC-257 melanoma): > 100 µM
- GI50 (UACC-62 melanoma): 3.45 µM
- TGI (UACC-62 melanoma): 39.8 µM
- GI50 (UO-31 renal): 2.64 µM
- TGI (UO-31 renal): 31 µM
